{
  "source": "patent US20140273008A1",
  "about": "“METHODS TO ASSESS ENZYME ACTIVITY USING MASS SPECTROMETRIC IMMUNOASSAY” (Molecular BioProducts, Inc., priority 2013, published 2014)",
  "biological_target": "T1, DPP4 (Homo sapiens, UniProt P27487)",
  "T1 construct": "from tissue; host or cells: human heparinized plasma",
  "T1 sequence (P27487 39-766 limits assumed)": "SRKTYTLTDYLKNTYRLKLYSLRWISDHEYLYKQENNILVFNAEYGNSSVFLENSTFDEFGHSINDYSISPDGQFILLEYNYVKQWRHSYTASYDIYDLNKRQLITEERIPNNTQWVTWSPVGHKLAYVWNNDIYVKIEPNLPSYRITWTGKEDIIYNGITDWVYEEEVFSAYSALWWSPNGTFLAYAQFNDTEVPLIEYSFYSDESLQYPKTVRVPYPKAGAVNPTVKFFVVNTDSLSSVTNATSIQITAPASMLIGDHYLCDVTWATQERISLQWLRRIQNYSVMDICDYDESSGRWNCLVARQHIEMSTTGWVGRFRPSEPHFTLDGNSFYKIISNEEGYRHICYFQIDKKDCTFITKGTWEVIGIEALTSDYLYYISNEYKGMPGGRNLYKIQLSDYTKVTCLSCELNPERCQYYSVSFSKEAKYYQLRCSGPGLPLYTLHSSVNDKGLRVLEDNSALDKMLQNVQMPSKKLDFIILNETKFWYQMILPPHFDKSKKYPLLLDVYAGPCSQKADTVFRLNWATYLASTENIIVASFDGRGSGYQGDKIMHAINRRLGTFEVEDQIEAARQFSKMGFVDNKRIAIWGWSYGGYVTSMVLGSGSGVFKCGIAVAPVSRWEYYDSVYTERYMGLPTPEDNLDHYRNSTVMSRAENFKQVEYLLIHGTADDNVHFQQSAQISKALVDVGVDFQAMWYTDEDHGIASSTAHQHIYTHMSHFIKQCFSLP",
  "test": "DPP4 activity by MSIA: substrate conversion in human heparinized plasma spiked with recombinant DPP4 substrate peptide and inhibitor",
  "assay_type": "biochemical",
  "protocol": "MSIA is a method by which sample purification and preparation occurs essentially simultaneously with sample aliquot and delivery. More specifically, a pipette tip, into which a specific volume of a clinical sample, human or animal, is drawn, contains an affinity reagent for selective preparation and immuno-affinity purification of the sample for subsequent direct mass spectrometer analysis; i.e., no intervening purification steps are performed. As shown schematically in FIG. 1, a clinical sample is drawn into a pipette tip containing an exogenous synthetic peptide substrate. The clinical sample and the exogenous peptide substrate are incubated to effect binding of the exogenous peptide substrate to a specific enzyme that is present in the clinical sample. After washes with buffer and water, the eluant is used for subsequent MS analysis. In this elution process, the eluate is dispensed into a microtiter plate for LC/MS application, directly into a LC/MS, or onto a target for MS insertion. Regardless of the MS technique applied, the eluant contained the exogenous peptide substrates, both the parent exogenous peptide substrate and the cleaved degraded product that was produced based on the activity of the enzyme contained in the clinical sample.\nAn exogenous synthetic peptide that is a substrate for the enzyme to be assessed is introduced into a clinical specimen, e.g., blood, urine, plasma, cerebrospinal fluid, lymphatic fluid, etc., i.e., the clinical sample is spiked or doped with the exogenous synthetic peptide substrate. For example, if the enzyme to be assessed is DPP4, the sample may be spiked with an exogenous peptide substrate for DPP4, e.g., recombinant GLP1, natriuretic peptide, etc. The exogenous synthetic peptide substrate that is added to the clinical sample in vitro is termed the parent substrate. The sample is then analyzed by MS, or is incubated for a set period of time before MS analysis. Incubation may be for any desired time period, and at any desired temperature, e.g., ambient temperature 19° C.-22° C., or at another desirable temperature, e.g., 37° C. Enzyme that is present in the clinical sample proteolytically cleaves the exogenous parent synthetic peptide substrate into a smaller fragment. The exogenous synthetic peptide substrates, both the parent (unreacted) and the cleaved (reacted) degraded product, are the targets that are monitored by subsequent MSIA. The method may be summarized as follows:\nIn one embodiment, a MS measurement of the exogenous synthetic peptide substrate in the sample (step (b)) is performed at a single time point, e.g., 15 min. In one embodiment, a MS measurement of the exogenous synthetic peptide substrate in the sample (step (b)) is performed over a time course, e.g., from 100% substrate to decreased or essentially depleted substrate. The time course may be performed utilizing sequential aliquot removal from the same clinical sample, or may be performed on multiple samples assayed in parallel. In all embodiments, the clinical samples are analyzed using MSIA, which selectively targets the substrate peptide, both reacted and non-reacted. MS detection allows for differentiation of the two forms, i.e., the reacted (cleaved, degraded) form of the substrate peptide, and unreacted parent form of the substrate peptide. It thus provides a method of analyzing the activity of an enzyme in a biological system.\nIn embodiments, clinical samples were treated with various inhibitors to determine the modulation, if any, of the endogenous enzyme activity. For example, if DPP4 was the enzyme whose activity was to be assessed, inhibitors were used that were known or speculated to inhibit DPP4 activity. Concentration studies were also performed (data not shown).\nThe following results were obtained with the leupeptin inhibitor:\nThe following results were obtained with the AEBSF inhibitor: […]",
  "key": {"[1]": {"conditions": "Human Plasma 1, 5 mM AEBSF, 0 min"}, "[2]": {"conditions": "Human Plasma 1, 5 mM AEBSF, 15 min"}, "[3]": {"conditions": "Human Plasma 1, 5 mM AEBSF, 30 min"}, "[4]": {"conditions": "Human Plasma 1, 5 mM AEBSF, 45 min"}, "[5]": {"conditions": "Human Plasma 1, 5 mM AEBSF, 60 min"}, "[6]": {"conditions": "Human Plasma 1, 5 mM AEBSF, 75 min"}, "[7]": {"conditions": "Human Plasma 1, 1 mM leupeptin, 0 min"}, "[8]": {"conditions": "Human Plasma 1, 1 mM leupeptin, 15 min"}, "[9]": {"conditions": "Human Plasma 1, 1 mM leupeptin, 30 min"}, "[10]": {"conditions": "Human Plasma 1, 1 mM leupeptin, 45 min"}, "[11]": {"conditions": "Human Plasma 1, 1 mM leupeptin, 60 min"}, "[12]": {"conditions": "Human Plasma 1, 1 mM leupeptin, 75 min"}},
  "data": [
    {"compound": "NCCc1ccc(S(=O)(=O)F)cc1", "note": "[AEBSF]", "values": [
      {"measurement": "% Product", "setting": "[1]", "result": 0, "unit": "%"},
      {"measurement": "% Substrate", "setting": "[1]", "result": 100, "unit": "%"},
      {"measurement": "% Product", "setting": "[2]", "result": 11.7, "unit": "%"},
      {"measurement": "% Substrate", "setting": "[2]", "result": 88.3, "unit": "%"},
      {"measurement": "% Product", "setting": "[3]", "result": 17.4, "unit": "%"},
      {"measurement": "% Substrate", "setting": "[3]", "result": 82.6, "unit": "%"},
      {"measurement": "% Product", "setting": "[4]", "result": 22.2, "unit": "%"},
      {"measurement": "% Substrate", "setting": "[4]", "result": 77.8, "unit": "%"},
      {"measurement": "% Product", "setting": "[5]", "result": 24.3, "unit": "%"},
      {"measurement": "% Substrate", "setting": "[5]", "result": 75.7, "unit": "%"},
      {"measurement": "% Product", "setting": "[6]", "result": 24.8, "unit": "%"},
      {"measurement": "% Substrate", "setting": "[6]", "result": 75.2, "unit": "%"}
    ]},
    {"compound": "CC(=O)N[C@@H](CC(C)C)C(=O)N[C@@H](CC(C)C)C(=O)N[C@H](C=O)CCCNC(=N)N", "note": "[leupeptin]", "values": [
      {"measurement": "% Product", "setting": "[7]", "result": 0, "unit": "%"},
      {"measurement": "% Substrate", "setting": "[7]", "result": 100, "unit": "%"},
      {"measurement": "% Product", "setting": "[8]", "result": 52.6, "unit": "%"},
      {"measurement": "% Substrate", "setting": "[8]", "result": 47.4, "unit": "%"},
      {"measurement": "% Product", "setting": "[9]", "result": 77.8, "unit": "%"},
      {"measurement": "% Substrate", "setting": "[9]", "result": 22.2, "unit": "%"},
      {"measurement": "% Product", "setting": "[10]", "result": 85.1, "unit": "%"},
      {"measurement": "% Substrate", "setting": "[10]", "result": 14.9, "unit": "%"},
      {"measurement": "% Product", "setting": "[11]", "result": 87.9, "unit": "%"},
      {"measurement": "% Substrate", "setting": "[11]", "result": 12.1, "unit": "%"},
      {"measurement": "% Product", "setting": "[12]", "result": 90.2, "unit": "%"},
      {"measurement": "% Substrate", "setting": "[12]", "result": 9.8, "unit": "%"}
    ]}
  ]
}
